US8603976B2, “Methods of enhancing functioning of the large intestine” (1149336 Ontario, Inc., priority 1997, dated 2013)

Key:
Assay type in all cases: in vivo
Female CD1 mice [1] = test: 5% dextran sulfate induced ulcerative colitis model in mice (Example 2)
From the text: This experiment was designed to test the activity of GLP-2 in ameliorating disease symptoms in an animal model of colitis. A 5% dextran sulfate solution was used to induce ulcerative colitis in test mice (Okayasu et al., 1990, 98:694-702).
Forty female CD1 mice (six-weeks old and approximately 25 g, obtained from Charles River) were used in the experiment. On day 1, the mice were weighed using a Mettler PJ300 scale and randomly allocated to 1 of eight treatment groups. The groups, each consisting of 5 mice housed together, were treated as follows:
These two groups were fed normal drinking water.
Group 1) Ten days of injections (PBS), day 7 to day 17, animals sacrificed day 17.
Group 2) Ten days of injections human (Gly 2) GLP-2 (2.5 μg bid), day 7 to day 17, animals sacrificed day 17.
Groups 3 and 4—Test Group
Drinking water given to these groups contained 5% Dextran sulfate (DS).
Group 3) DS given from day 7 to day 17, PBS injections given from day 7 to day 17, animals sacrificed day 17.
Group 4) DS given from day 7 to day 17, human[Gly^2] GLP-2 (2.5 μg bid) injections given day 7 to day 17, animals sacrificed day 17.
Groups 5 and 6—Test Group
Drinking water contained 5% Dextran sulfate day 2 to day 9, followed by 4 days of normal drinking water. Ten days of injections were started day 4. […]
Dextran sulfate (USB, Cleveland, Ohio, MW 40,000-50,000) was dissolved into double distilled water, and placed into the water bottles. Water bottles were topped up daily. GLP-2 peptide was reconstituted and aliquoted on the day prior to the first day of injection and kept in a −20 C. freezer. Human [Gly^2]GLP-2 (5 mg/mL) was reconstituted in PBS. One microliter of 5N NaOH was required to dissolve the peptide in a volume of 1 ml. The injection volume of 0.5 ml was constant throughout the experiment using ½ cc U-100 Insulin Syringes Becton Dickinson and Company, NJ). Control mice (cage 1) received the same volume (0.5 ml) of phosphate buffered saline (PBS—137 mM NaCl, 2.7 mM KCl, 4.3 mM Na2HPO4.7H2O, 1.4 mM KH2PO4, pH 7.3).
Subcutaneous injections in the right hind quarter began on various days depending on the treatment conditions given above. All injections were twice a day, at 8 am and 6 pm. Mice in cages 1 and 2 were fasted on the day prior to sacrifice. Body weight measurements were made on day 1, day 7, day 12 and the day of sacrifice. The weight and length of the large intestine of each animal was measured after sacrifice.

mice = test: Mortality in mice exposed to 10% colitis-inducing dextran sulfate (Example 3); conditions: 10% dextran sulfate in drinking water, 2.5 μg per injection s.c. twice per day, after 9 days; saline group 3 of 10
Description: Mice were also treated with 2 subcutaneous injections per day (0.5 ml) of either saline, or [GLY^2]hGLP-2, 2.5 μg per injection. After 9 days, the experiment was stopped.

Female CD1 mice [2] = test: Effect of GLP-2 on small and large intestinal mass and protein content in mice (Example 1); conditions: 2.5 μg twice daily subcutaneously for 10 days
Description: In this experiment, the effect of GLP-2 on both small and large intestinal mass, as well as the relative contribution of water to the increment in intestine weight, was examined.
Female CD1 mice (6 weeks old) were treated with rat GLP-2, 2.5 μg twice daily (subcutaneously) for 10 days. Following treatment, mice were fasted 24 hours, anesthetized with CO2 and sacrificed. The small and large intestine was removed from the peritoneal cavity (from pylorus to cecum), cleaned, weighed and measured. For comparative purposes, 2 cm segments of proximal jejunum, ileum and colon were obtained from each animal from the identical anatomical positions (as measured from the pylorus and cecum) and analyzed for protein content, wet weight and dry weight (expressed as mean±S.E.M in mg/2 cm segment).
For protein content, two 2 cm segments from the proximal jejunum, ileum and colon were removed, placed in 13 ml tubes containing 2 ml of PBS, homogenized for 20 seconds in a Brinkmann Homogenizer and placed on ice. The tubes were centrifuged for 5 min. at 1000 g and 100 μl aliquots of supernatant homogenate removed for determination of protein content using the modified Bradford method.
To measure wet and dry weight, 2 cm intestinal segments were weighed, placed in culture tubes, reweighed, then freeze-dried overnight in a Fast-Freeze flask (Labconco) and reweighed.

[3] = 5% DS day 7 to day 17, 2.5 μg bid s.c. day 7 to day 17, group 4 vs group 3 (PBS)
[4] = normal drinking water, 2.5 μg bid s.c. for ten days, group 2 vs group 1 (PBS)
[5] = 2 cm segment, vs PBS-treated mice, p<0.05

Substance | body weight through the course of the experiment (Female CD1 mice [1]; [3]) | large intestine weight at sacrifice (Female CD1 mice [1]; [3]) | large intestine length during experimentally induced colitis (Female CD1 mice [1]; 5% DS day 7 to day 17, 2.5 μg bid s.c., group 4 vs group 3 (PBS)) | morbidity, dehydration and reduction in mass of the large intestine caused by induced colitis (Female CD1 mice [1]; agonist given at the same time as 5% DS, day 7 to day 17, group 4 vs group 3) | large intestine length (Female CD1 mice [1]; [4]) | post-treatment large intestinal mass (Female CD1 mice [1]; [4]) | survival (mice) | dry weight of intestinal segments from the proximal jejunum (Female CD1 mice [2]; [5]) | wet weight of intestinal segments from the proximal jejunum (Female CD1 mice [2]; [5]) | weights of the segments obtained from the colon (Female CD1 mice [2]; 2 cm segment, wet and dry weight) | protein content in the colon (Female CD1 mice [2]; compared to PBS-treated mice) | protein content in the jejunum (Female CD1 mice [2]; compared to PBS-treated mice)
[Gly^2]hGLP-2: human GLP-2 wherein the alanine at position 2 is replaced by a glycine; DPP-IV resistant analog (HGDGSFSDEMNTILDNLAARDFINWLIQTKITD; Glucagon-like peptide 2; UniProt P01275 146-178, looked up, variant A2G) | maintain body weight better | significantly heavier large intestines | also exhibited, although to a lesser degree | ameliorates the severe morbidity, dehydration, and reduction in mass of the large intestine | significant increase in large intestine length | causes an increase in large intestinal mass | 7 of 10 | – | – | – | – | –
rat GLP-2: rat GLP-2, 33 amino acid peptide having the sequence SEQ ID NO: 2; used in Example 1 (HADGSFSDEMNTILDNLATRDFINWLIQTKITD; listed as Rattus sp.) | – | – | – | – | – | – | – | significantly increased | significantly increased | slightly, but consistently, increased | statistically significant increase | statistically significant increase
